Measurements published in PMC12392461, “Beyond Estrogenicity: A Comparative Assessment of Bisphenol A and Its Alternatives in In Vitro Assays Questions Safety of Replacements” (Environmental Science & Technology, 2025).
Read-outs that look alike come from different tables or passages of the source.

Legend:
[1] = target: T1, Peroxisome proliferator-activated receptor γ (Homo sapiens, UniProt P37231); experiment: cell-based; conditions: for EC10, linear: linear model; for logEC10: log-logistic model
T1 sequence (P37231 238-505 limits assumed): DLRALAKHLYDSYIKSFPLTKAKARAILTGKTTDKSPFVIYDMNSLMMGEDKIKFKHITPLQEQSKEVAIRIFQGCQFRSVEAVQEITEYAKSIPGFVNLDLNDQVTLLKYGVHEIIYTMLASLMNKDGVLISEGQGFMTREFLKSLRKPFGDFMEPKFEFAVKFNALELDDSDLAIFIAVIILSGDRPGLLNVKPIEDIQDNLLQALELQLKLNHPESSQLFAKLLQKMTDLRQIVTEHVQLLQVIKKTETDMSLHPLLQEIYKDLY
Outline: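 ERα-UAS-bla GripTite and PPARγ-UAS-bla β-lactamase reporter cells were seeded and held 24 h at 37 °C, 5% CO₂ before dosing. EC10 values used only concentrations below the IC10 from IncuCyte confluency. Emax% is the log-logistic curve maximum relative to the reference chemical's maximum.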

H4IIe (AhR CALUX) = conditions: for IC10, linear / logIC10 / IC10, linear transformed: Bioassay AhR, dosing range all; for IC10, linear / logIC10 / IC10, linear transformed / IC10, H4IIe, AhR: cytotoxicity; for IC10, linear: linear model fit; for logIC10: log-logistic model fit; for Toxic ratio (TR) TRAhR: against baseline cytotoxicity; for IC10, H4IIe, AhR: H4IIe (AhR assay cells)
Description: (§1) Cell culture conditions and bioassay protocols including response detection are provided in Text S2.1–2.4 and Table S3. − Cell viability was determined from cell confluency using an IncuCyte S3 Live-Cell Analysis System (Sartorius AG, Essen, Germany) before and after exposure, except for SH-SY5Y cells (live–dead staining with Nuclear Green LcS1 and propidium iodide, Abcam, UK). For metabolic activation experiments, cell viability was assessed using the ToxBLAzer DualScreen Kit (Thermo Fisher Scientific) to capture the remaining toxicity in ERα-UAS-bla GripTite after treatment with the aCYP catalyst (details in Text S2.4).
(§2) For ARE, the concentration that triggered an induction ratio of 1.5 (ECIR1.5) was used as the benchmark value, as detailed in Text S2.5. IC10 values also served as a threshold for data analysis in all assays; only concentrations below IC10 were considered when deriving EC10 or ECIR1.5.
(§3) We measured the cytotoxicity of BPA and its alternatives in HEK293H (PPARγ), HEK293T (ERα), H4IIe (AhR CALUX), MCF7 (ARE/MMP), and differentiated SH-SY5Y cells (Table S6). […]
(§4) S2.2: Cell Seeding and Incubation. For all bioassays, cell suspensions in the respective assay medium were dispensed into each well of 384-well plates using a MultiFlo Dispenser (Biotek, (now Agilent), Winooski, VT, U.S.). After seeding, the plates were incubated at 37° C and 5% CO₂ for […]. The final cell densities and plate types were as follows: Black poly-D-lysine […]
(§5) 6500 cells/well, ERα: 5000 cells/well. White 384-well plates with a clear bottom (Product No.
(§6) NYC, U.S.) for AhR: 3250 cells/well. Black Collagen I coated plates were used (Product No.
(§7) S2.3: Chemical Dosing and Assay Analysis Procedures. The dosing procedure and high-throughput assay workflow have been described in detail before. 9 The dosing concentrations […]
(§8) Stock solutions were then either added directly to the respective cell culture medium or evaporated under nitrogen, followed by replenishment with fresh medium. The final solvent content in each well was kept below 1% for methanol, 0% for acetonitrile.
(§9) Dosing plates were prepared as 11 -step serial dilutions using a Hamilton Microlab Star robotic system (Hamilton, Bonaduz, Switzerland), and chemicals were dosed in duplicates by transferring 10 μL twice from the dosing plates to the cell plates . After quantifying cell confluency as described in S2. 4., the exposed cells were incubated at 37° C and 5% CO₂ for an additional 24 h. All chemicals were tested in all assays with at least three independent […]
(§10) S2.4: Cell Viability Measurement s and bioanalytical protocols . The confluency as a measure of cell viability was determined with an IncuCyte S3 Live -Cell Analysis System (Sartorius AG, Essen, Germany). With this method the confluency of cells in a microscopy image are normalized to control wells without cells and compared before and after 24 hours of exposure.
(§11) This method has been described previously 13. […]

HEK293H (PPARγ) = conditions: for IC10, linear transformed / IC10, linear / logIC10: PPARγ bioassay cytotoxicity, dosing range all; for IC10, linear: linear model; for logIC10: log-logistic model; for Toxic ratio (TR) TRPPARγ: against baseline cytotoxicity; for IC10, HEK293, PPARγ: cytotoxicity, HEK293 (PPARγ assay cells)
Description: as §1, §2, §3, §4, §5, §6, §7, §8, §9, §10, §11

HEK293T (ERα) = conditions: for IC10, linear transformed / IC10, linear / logIC10: Bioassay ERα; for IC10, linear transformed / IC10, linear / logIC10 / IC10, HEK293, ERα: cytotoxicity; for IC10, linear: linear model fit; for logIC10: log-logistic model fit; for Toxic ratio (TR) TRERα: against baseline cytotoxicity; for IC10, HEK293, ERα: HEK293 (ERα assay cells)
Description: as §1, §2, §3, §4, §5, §6, §7, §8, §9, §10, §11

MCF7 (ARE/MMP) = conditions: for IC10, linear transformed / IC10, linear / logIC10: dosing range all; for Toxic ratio (TR) TRARE / Toxic ratio (TR) TRMMP: against baseline cytotoxicity; for Toxic ratio (TR) TRARE: ARE readout; for Toxic ratio (TR) TRMMP: MMP readout; for IC10, MCF7, ARE: MCF7, ARE readout; for IC10, MCF7, MMP: MCF7, MMP readout
Description: as §1, §2, §3, §4, §5, §6, §7, §8, §9, §10, §11

[2] = PPARγ bioassay, dosing range all
[3] = Bioassay ARE, cytotoxicity, linear model fit
[4] = Bioassay ARE, cytotoxicity, log-logistic model fit
[5] = MMP bioassay cytotoxicity, linear model
[6] = MMP bioassay cytotoxicity, log-logistic model

SMILES: CC(C)(c1ccc(OCC2CO2)cc1)c1ccc(OCC2CO2)cc1 (stereo not shown) [BADGE, Bisphenol A diglycidyl ether]
- EC10, linear [1, 2]: no effect
- logEC10 [1, 2]: no effect
- IC10, linear (H4IIe (AhR CALUX)): no cytotoxicity
- logIC10 (H4IIe (AhR CALUX)): no cytotoxicity
- IC10, linear transformed (HEK293H (PPARγ)): 1.49E-05
- IC10, linear (HEK293H (PPARγ)): no cytotoxicity
- logIC10 (HEK293H (PPARγ)): -4.62
- Toxic ratio (TR) TRPPARγ (HEK293H (PPARγ)): 0.42
- IC10, HEK293, PPARγ (HEK293H (PPARγ)): 24 µM
- IC10, linear transformed (HEK293T (ERα); dosing range all): 1.08E-05
- IC10, linear (HEK293T (ERα); dosing range all): no cytotoxicity
- logIC10 (HEK293T (ERα); dosing range all): -4.73
- Toxic ratio (TR) TRERα (HEK293T (ERα)): 0.54
- IC10, HEK293, ERα (HEK293T (ERα)): 18.8 µM
- IC10, linear transformed (MCF7 (ARE/MMP); Bioassay ARE, cytotoxicity): 3.85E-05
- IC10, linear (MCF7 (ARE/MMP); [3]): 3.62E-05
- logIC10 (MCF7 (ARE/MMP); [4]): -4.41
- IC10, linear transformed (MCF7 (ARE/MMP); MMP bioassay cytotoxicity): 7.87E-05
- IC10, linear (MCF7 (ARE/MMP); [5]): 8.59E-05
- logIC10 (MCF7 (ARE/MMP); [6]): -4.10
- Toxic ratio (TR) TRARE (MCF7 (ARE/MMP)): 0.61
- Toxic ratio (TR) TRMMP (MCF7 (ARE/MMP)): 0.30
- IC10, MCF7, ARE (MCF7 (ARE/MMP); cytotoxicity): 38.5 µM
- IC10, MCF7, MMP (MCF7 (ARE/MMP); cytotoxicity): 78.7 µM

SMILES: CC(C)c1cc(C(C)(C)c2ccc(O)c(C(C)C)c2)ccc1O [BPG, 2,2-Bis(4-hydroxy-3-isopropylphenyl)propane]
- EC10, PPARγ (M) ([1]; 10% of maximum effect of rosiglitazone): 1.17 × 10^–7 M
- EC10, linear transformed [1, 2]: 1.17E-07
- EC10, linear [1, 2]: 1.61E-07
- logEC10 [1, 2]: -6.93
- SR-ScorePPARγ ([1]; SR-Score, sigma k=1, x=5): 1.00
- Specificity ratio (SRbaseline) SRPPARγ ([1]; against baseline cytotoxicity): 12.28
- Specificity ratio (SRcytotoxicity) SRPPARγ ([1]; against experimental cytotoxicity): 54.95
- EC10, PPARγ ([1]; effect): 0.117 µM
- log(1/EC10) PPARγ ([1]; input of the ToxPi score, values up to 1.00): 0.98
- Emax ([1]; read-out: Emax%PPARγ): 22%
- IC10, linear transformed (H4IIe (AhR CALUX)): 2.43E-05
- IC10, linear (H4IIe (AhR CALUX)): 2.10E-05
- logIC10 (H4IIe (AhR CALUX)): -4.61
- Toxic ratio (TR) TRAhR (H4IIe (AhR CALUX)): 0.25
- IC10, H4IIe, AhR (H4IIe (AhR CALUX)): 21 µM
- IC10, linear transformed (HEK293H (PPARγ)): 3.91E-06
- IC10, linear (HEK293H (PPARγ)): 5.23E-06
- logIC10 (HEK293H (PPARγ)): -5.19
- Toxic ratio (TR) TRPPARγ (HEK293H (PPARγ)): 0.22
- IC10, HEK293, PPARγ (HEK293H (PPARγ)): 6.46 µM
- IC10, linear transformed (HEK293T (ERα); dosing range all): 5.99E-06
- IC10, linear (HEK293T (ERα); dosing range all): no cytotoxicity
- logIC10 (HEK293T (ERα); dosing range all): -5.16
- Toxic ratio (TR) TRERα (HEK293T (ERα)): 0.21
- IC10, HEK293, ERα (HEK293T (ERα)): 6.95 µM
- IC10, linear transformed (MCF7 (ARE/MMP); Bioassay ARE, cytotoxicity): 6.03E-06
- IC10, linear (MCF7 (ARE/MMP); [3]): 7.17E-06
- logIC10 (MCF7 (ARE/MMP); [4]): -5.22
- IC10, linear transformed (MCF7 (ARE/MMP); MMP bioassay cytotoxicity): 8.72E-06
- IC10, linear (MCF7 (ARE/MMP); [5]): 8.88E-06
- logIC10 (MCF7 (ARE/MMP); [6]): -5.06
- Toxic ratio (TR) TRARE (MCF7 (ARE/MMP)): 0.88
- Toxic ratio (TR) TRMMP (MCF7 (ARE/MMP)): 0.61
- IC10, MCF7, ARE (MCF7 (ARE/MMP); cytotoxicity): 6.03 µM
- IC10, MCF7, MMP (MCF7 (ARE/MMP); cytotoxicity): 8.72 µM

SMILES: CCC(C)(c1ccc(O)cc1)c1ccc(O)cc1 [BPB, 4,4'-(Butane-2,2-diyl)diphenol]
- EC10, linear [1, 2]: no effect
- logEC10 [1, 2]: no effect
- IC10, linear transformed (H4IIe (AhR CALUX)): 8.31E-05
- IC10, linear (H4IIe (AhR CALUX)): 6.98E-05
- logIC10 (H4IIe (AhR CALUX)): -4.08
- Toxic ratio (TR) TRAhR (H4IIe (AhR CALUX)): 0.31
- IC10, H4IIe, AhR (H4IIe (AhR CALUX)): 69.8 µM
- IC10, linear transformed (HEK293H (PPARγ)): 2.50E-06
- IC10, linear (HEK293H (PPARγ)): 1.29E-05
- logIC10 (HEK293H (PPARγ)): -4.83
- Toxic ratio (TR) TRPPARγ (HEK293H (PPARγ)): 0.61
- IC10, HEK293, PPARγ (HEK293H (PPARγ)): 14.8 µM
- IC10, linear transformed (HEK293T (ERα); dosing range high): 6.28E-06
- IC10, linear (HEK293T (ERα); dosing range high): no cytotoxicity
- logIC10 (HEK293T (ERα); dosing range high): -4.68
- IC10, linear (HEK293T (ERα); dosing range low): no cytotoxicity
- logIC10 (HEK293T (ERα); dosing range low): no cytotoxicity
- Toxic ratio (TR) TRERα (HEK293T (ERα)): 0.43
- IC10, HEK293, ERα (HEK293T (ERα)): 20.9 µM
- IC10, linear transformed (MCF7 (ARE/MMP); Bioassay ARE, cytotoxicity): 3.73E-05
- IC10, linear (MCF7 (ARE/MMP); [3]): 3.87E-05
- logIC10 (MCF7 (ARE/MMP); [4]): -4.43
- IC10, linear transformed (MCF7 (ARE/MMP); MMP bioassay cytotoxicity): 3.51E-05
- IC10, linear (MCF7 (ARE/MMP); [5]): 3.05E-05
- logIC10 (MCF7 (ARE/MMP); [6]): -4.46
- Toxic ratio (TR) TRARE (MCF7 (ARE/MMP)): 0.58
- Toxic ratio (TR) TRMMP (MCF7 (ARE/MMP)): 0.62
- IC10, MCF7, ARE (MCF7 (ARE/MMP); cytotoxicity): 37.3 µM
- IC10, MCF7, MMP (MCF7 (ARE/MMP); cytotoxicity): 35.1 µM
